Counter-ions that a name gives are not always drawn. Like-named read-outs stand apart in the source and are kept apart here.
Tests used:
[1] = Solvent solubility screen of phosphate salt; type: physicochemical; conditions: for solubility: read-out: Approx. Solubility
Experimental: Selected solvent was added in 50 μL aliquots to approximately 10 mg of poorly crystalline phosphate pattern (obtained from above lyophilisation). Between each addition, the mixture was checked for dissolution and where no dissolution was apparent, the mixture was heated to about 40° C. and checked again. This procedure was continued until dissolution was observed or until 2 mL of solvent had been added. Samples in which dissolution was observed were stored uncapped at ambient temperature to allow evaporation. Samples in which dissolution was not observed were filtered via centrifugation. All observed solids were analyzed by XRPD. The solvent systems used during the solvent solubility screen are detailed in Table 3.

[2] = Storage of phosphate pattern 2 at 40° C./75% RH; type: physicochemical; conditions: about 16 hours
Experimental: The samples were analyzed by XRPD.

solubility ([1]; 1,4-dioxane, 40 °C, organic solvent or mixture, thermodynamic from solid, 1,4-Dioxane): < 5000 µg/mL
solubility ([1]; 2-Butanol, 40 °C, organic solvent or mixture, thermodynamic from solid, 2-Butanol): < 5000 µg/mL
solubility ([1]; 2-Ethoxyethanol, 40 °C, organic solvent or mixture, thermodynamic from solid, 2-Ethoxyethanol): < 5000 µg/mL
solubility ([1]; 2-methyl tetrahydrofuran, 40 °C, organic solvent or mixture, thermodynamic from solid, 2-Methyl tetrahydrofuran): < 5000 µg/mL
solubility ([1]; 2-propanol, 40 °C, organic solvent or mixture, thermodynamic from solid, 2-Propanol): < 5000 µg/mL
solubility ([1]; 80% 2-propanol/20% water (% v/v), 40 °C, organic solvent or mixture, thermodynamic from solid, 80% 2-Propanol/20% water (% v/v)): < 5000 µg/mL
solubility ([1]; 80% acetone/20% water (% v/v), 40 °C, organic solvent or mixture, thermodynamic from solid, 80% Acetone/20% water (% v/v)): < 5000 µg/mL
solubility ([1]; 80% acetonitrile/20% water (% v/v), 40 °C, organic solvent or mixture, thermodynamic from solid, 80% Acetonitrile/20% water (% v/v)): < 5000 µg/mL
solubility ([1]; 80% methanol/20% water (% v/v), 40 °C, organic solvent or mixture, thermodynamic from solid, 80% Methanol/20% water (% v/v)): < 5000 µg/mL
Approx. Solubility ([1]; N-Methyl pyrrolidone): 17000 µg/mL
solubility ([1]; N-methyl pyrrolidone, organic solvent or mixture, thermodynamic from solid, N-Methyl pyrrolidone): 10000 to 100000 µg/mL
Approx. Solubility ([1]; Water): 17000 µg/mL
solubility ([1]; acetone, 40 °C, organic solvent or mixture, thermodynamic from solid, Acetone): < 5000 µg/mL
solubility ([1]; acetonitrile, 40 °C, organic solvent or mixture, thermodynamic from solid, Acetonitrile): < 5000 µg/mL
solubility ([1]; anisole, 40 °C, organic solvent or mixture, thermodynamic from solid, Anisole): < 5000 µg/mL
solubility ([1]; chloroform, 40 °C, organic solvent or mixture, thermodynamic from solid, Chloroform): < 5000 µg/mL
solubility ([1]; ethanol, 40 °C, organic solvent or mixture, thermodynamic from solid, Ethanol): < 5000 µg/mL
solubility ([1]; ethanol/water Aw 0.4, 40 °C, organic solvent or mixture, thermodynamic from solid, Ethanol/water Aw 0.4): < 5000 µg/mL
solubility ([1]; ethanol/water Aw 0.5, 40 °C, organic solvent or mixture, thermodynamic from solid, Ethanol/water Aw 0.5): < 5000 µg/mL
solubility ([1]; ethanol/water Aw 0.6, 40 °C, organic solvent or mixture, thermodynamic from solid, Ethanol/water Aw 0.6): < 5000 µg/mL
solubility ([1]; ethanol/water Aw 0.7, 40 °C, organic solvent or mixture, thermodynamic from solid, Ethanol/water Aw 0.7): < 5000 µg/mL
solubility ([1]; ethanol/water Aw 0.8, 40 °C, organic solvent or mixture, thermodynamic from solid, Ethanol/water Aw 0.8): < 5000 µg/mL
solubility ([1]; ethyl acetate, 40 °C, organic solvent or mixture, thermodynamic from solid, Ethyl acetate): < 5000 µg/mL
solubility ([1]; ethyl formate, 40 °C, organic solvent or mixture, thermodynamic from solid, Ethyl formate): < 5000 µg/mL
solubility ([1]; ethyleneglycol, 40 °C, organic solvent or mixture, thermodynamic from solid, Ethyleneglycol): < 5000 µg/mL
solubility ([1]; isopropyl acetate, 40 °C, organic solvent or mixture, thermodynamic from solid, Isopropyl acetate): < 5000 µg/mL
solubility ([1]; methanol, 40 °C, organic solvent or mixture, thermodynamic from solid, Methanol): < 5000 µg/mL
solubility ([1]; methylethyl ketone, organic solvent or mixture, thermodynamic from solid, Methylethyl ketone): < 5000 µg/mL
solubility ([1]; methylisobutyl ketone, organic solvent or mixture, thermodynamic from solid, Methylisobutyl ketone): < 5000 µg/mL
solubility ([1]; nitromethane, organic solvent or mixture, thermodynamic from solid, Nitromethane): < 5000 µg/mL
solubility ([1]; tert-butylmethyl ether, organic solvent or mixture, thermodynamic from solid, tert-Butylmethyl ether): < 5000 µg/mL
solubility ([1]; tetrahydrofuran, organic solvent or mixture, thermodynamic from solid, Tetrahydrofuran): < 5000 µg/mL
solubility ([1]; water, thermodynamic from solid, Water): 10000 to 100000 µg/mL
form by XRPD upon storage at 40° C./75% RH [2]: completely converted to form 1
Compound: Cn1ncc2c1Nc1ccccc1NC2 [phosphate pattern 2, phosphoric acid addition salt of 1-methyl-1,4,5,10-tetrahydropyrazolo[3,4-b][1,5]benzodiazepine]

Reference: patent publication US20240287074A1, “SALTS AND CRYSTALS” (Kinoxis Therapeutics Pty Ltd, priority 2020, published 2024)
